Source: PubChem BioAssay (NCI)
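All cell lines were grown in 96-well plates and treated with compound for 48 hours. Definition used: TGI = concentration required for complete inhibition of growth.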

What was measured:
Test in all cases: growth of human tumour cells (NCI), 48 h
[1] = system: SK-MEL-5 melanoma
[2] = system: RPMI-8226 leukemia
[3] = system: COLO 205 colon
[4] = system: SR leukemia
[5] = system: MOLT-4 leukemia
[6] = system: SNB-75 CNS
[7] = system: CAKI-1 renal
[8] = system: NCI-H23 lung
[9] = system: TK-10 renal
[10] = system: UACC-62 melanoma
[11] = system: NCI-H460 lung
[12] = system: SK-OV-3 ovarian
[13] = system: A498 renal
[14] = system: CCRF-CEM leukemia
[15] = system: IGROV1 ovarian
[16] = system: MCF7 breast
[17] = system: OVCAR-5 ovarian
[18] = system: RXF 393 renal
[19] = system: NCI/ADR-RES ovarian
[20] = system: BT-549 breast

| Structure (SMILES) | TGI [1] [µM] | TGI [2] [µM] | TGI [3] [µM] | TGI [4] [µM] | TGI [5] [µM] | TGI [6] [µM] | TGI [7] [µM] | TGI [8] [µM] | TGI [9] [µM] | TGI [10] [µM] | TGI [11] [µM] | TGI [12] [µM] | TGI [13] [µM] | TGI [14] [µM] | TGI [15] [µM] | TGI [16] [µM] | TGI [17] [µM] | TGI [18] [µM] | TGI [19] [µM] | TGI [20] [µM] |
| --- | --- | --- | --- | --- | --- | --- | --- | --- | --- | --- | --- | --- | --- | --- | --- | --- | --- | --- | --- | --- |
| O=[N+]([O-])c1ccccc1N=Nc1c(O)sc2ccccc12 | > 100 | > 100 | > 100 | > 100 | > 100 | 79.5 | > 100 | > 100 | > 100 | > 100 | > 100 | > 100 | > 100 | > 100 | > 100 | > 100 | > 100 |  |  |  |
| CC[C@]12C=CCN3CC[C@@]4(c5ccc(OC)cc5N(C)[C@H]4[C@@](O)(C(=O)OC)[C@@H]1OC(C)=O)[C@@H]32 | > 200 | > 200 | > 200 |  | > 176 | > 200 | > 200 | > 200 |  | > 200 | > 200 | > 200 | > 200 | > 200 | > 200 | > 200 | > 200 | > 200 | > 200 |  |
| CCOCNC(=O)N(COCC)COCC |  | > 100 | > 100 |  | > 100 | > 100 | > 100 |  |  | > 100 |  | > 100 | > 100 | > 100 | > 100 |  | > 100 |  |  |  |
| Cc1cc(NS(=O)(=O)c2ccc(N=Nc3c(O)c(C(=O)O)cc4ccccc34)cc2)nc(C)n1 | > 100 | > 100 | > 100 | > 100 | > 100 | > 100 | > 100 |  | > 100 | > 100 | > 100 | > 100 |  | > 100 | > 100 | > 100 | > 100 | > 100 | > 100 | > 100 |
| CC(=O)[C@]1(O)Cc2c(O)c3c(c(O)c2C(OC2OC(C)C(O)C(O)C2F)C1)C(=O)c1ccccc1C3=O (some centres undefined) | 0.68 | 2.36 | 3.47 |  | 0.0577 | 0.837 |  | 0.303 | 71.3 | 0.724 |  | 45.9 | 0.398 | 0.0642 | 24.9 | > 45.2 | 1.31 | 1.89 | 3.78 | 2.44 |
| Oc1ccc2ccccc2c1N=Nc1ccc(F)cc1 | > 100 | > 100 | > 100 | > 100 | > 100 | > 100 | > 100 | > 100 | > 100 | > 100 | > 100 | > 100 | > 100 | > 100 | > 100 |  | > 100 | > 100 |  |  |
| CC(C)CCN=c1cc2n(-c3ccc(Cl)cc3)c3ccccc3nc-2cc1Nc1ccc(Cl)cc1 | 25.3 | 5.74 | 12.9 |  | > 51.8 | > 91.4 | > 67.6 | 12.1 |  | 20.4 | 15.6 | 70.2 | 48.5 | > 91 | 17.9 | > 42 | 35.3 | 10.9 | 28.6 |  |
| Cc1ccc2nc3ccccc3c(C3C4C(=O)N(c5ccc(Br)cc5Cl)C(=O)C4ON3C(C(N)=O)c3ccccc3)c2c1 (centres undefined) | > 25 |  | > 25 | > 25 | > 25 | > 25 | 10.5 | 6.86 | > 25 | > 25 | > 25 | > 25 | > 25 | > 25 | > 25 | > 25 | > 25 | > 25 |  |  |
| CC[N+](C)(CC)Cc1ccccc1[N+](=O)[O-] | > 100 | > 100 | > 100 | > 100 | > 100 | > 100 | > 100 | > 100 | > 100 | > 100 | > 100 | > 100 | > 100 | > 100 | > 100 | > 100 | > 100 | > 100 | > 100 | > 100 |
| O=c1c2ccccc2nnn1-c1n[nH]c2ccccc12 | > 100 | > 100 | > 100 |  |  | > 100 | > 100 | > 100 | > 100 | > 100 | > 100 |  | > 100 | > 100 | > 100 | > 100 | > 100 | > 100 | > 100 | > 100 |
| O=C(NCCCNC(=O)c1ccc2cc(O)c(O)cc2c1)c1ccc2cc(O)c(O)cc2c1 | 48.4 | > 100 | > 100 | > 100 | > 100 | > 100 | > 100 | 63.5 | > 100 | 42.7 | > 100 |  | > 100 | 66.3 | > 100 | > 100 | > 100 | 99.7 | > 100 | > 100 |
| C[N+](C)(N)CCC[N+](C)(C)N | > 100 | > 100 | > 100 | > 100 | > 100 | > 100 | > 100 | > 100 | > 100 | > 100 | > 100 | > 100 | > 100 | > 100 | > 100 | > 100 | > 100 | > 100 | > 100 | > 100 |
| CC(=O)OC[C@H]1[C@@H]2C(CC[C@]13CO3)OC(=O)CC(C)[C@]2(C)CCc1ccoc1 (some centres undefined) | > 100 |  | > 100 | > 100 | > 100 |  | > 100 | > 100 | > 100 | > 100 | > 100 | > 100 | > 100 | > 100 | > 100 | > 100 | > 100 | > 100 | > 100 | > 100 |
| COc1ccc(-c2c(C#N)c(NC(=S)NC(=O)c3ccccc3)nc3c2CCCC3)cc1OC | > 100 | > 100 | > 100 | > 100 | > 100 | > 100 | > 100 | > 100 | > 100 | > 100 | > 100 | > 100 |  | > 100 | > 100 | > 100 | > 100 | 68.1 | > 100 | > 100 |
| CN(CCCNc1ccc2ncn3c4ccccc4c(=O)c1c23)CCCN1C(=O)c2cccc3cc([N+](=O)[O-])cc(c23)C1=O |  |  | 1.06 |  | 0.193 | 1.81 | 2 | 1.5 | 0.156 |  | 0.0224 | 2.69 | 4.53 | 0.973 | 1.48 | 0.114 | 2.35 | 2.14 | 1.69 | 2.01 |
| CN(C)CC(CN(C)C)c1ccccn1 | > 100 | > 100 | > 100 | > 100 | > 100 |  | > 100 | > 100 | > 100 | > 100 | > 100 | > 100 | > 100 | > 100 | > 100 | > 100 | > 100 | > 100 | > 100 | > 100 |
| NCCc1nc(-c2nc(C(=O)O)cs2)cs1 | > 100 | > 100 | > 100 | > 100 | > 100 | > 100 | > 100 | > 100 | > 100 | > 100 | > 100 | > 100 | > 100 | > 100 | > 100 | > 100 | > 100 | > 100 | > 100 | > 100 |
| CC[C@@H]1/C=C/C=C/C[C@H](C)[C@@H](O)[C@](C)(O)C(=O)[C@H](C)[C@@H](O)[C@H](C)C(=O)[C@H](C)[C@@H](O)[C@H](C)/C=C/C(=O)O[C@H]2[C@@H](C)[C@@H](CC1)O[C@]1(O[C@H](CC(C)O)[C@H](C)CC1=O)[C@@H]2C (some centres undefined) | 3.53 | > 13.9 | 5.07 | 12.8 | 11.3 | > 25 | 18 | 12.4 | 17.9 | 6.68 | 6.85 | > 19.2 | 7.93 | > 16 | 16.4 | 4.7 | 8.25 | 7.37 | 14.8 | 10.9 |
